Experimental findings from patent US11413280B2 (The Board of Trustees of the Leland Stanford Junior …, priority 2017, dated 2022) are described below.

The test concerns FHIT. The test is described as follows: Relative FHIT mRNA expression in PAECs (qPCR). It counts as cell-based, human. The following applies: PAEC, 24 hours, low doses (5-15 uM), FIG. 14. On the procedure: Human PAEC (Promocell) or human PASMC (Promocell) were grown as monolayers in gelatin-coated dishes in a commercial EC (Promocell) or SMC (Promocell) media, respectively. Cells were passaged at 1:3 ratios and used for experiments from passages 3-8. Transformed lymphocytes (i.e., lymphoblasts) were cultured in RPMI 1640 with 10-15% FBS.
FHIT expression was modulated by RNAi in PA endothelial cells (PAEC). A pool of 4 siRNAs for BMPR2, FHIT, LCK or a non-targeting control pool (Dharmacon) were transfected into PAECs using the RNAi Max kit (Invitrogen) for 48 hours. mRNA knockdown efficiency was determined by qPCR.
For mRNA, total RNA was extracted from whole lung tissue using the RNAeasy Plus Kit (Qiagen) and reverse transcribed into cDNA using random primers with the Taqman cDNA reverse transcription Kit (Applied Biosciences) according to the manufacturer's instructions. For miR, total miR was isolated from whole lung tissue using the Taqman miRNA ABC purification Kit (Applied Biosciences) and was reverse transcribed using specific primers and the Taqman microRNA reverse transcription kit (Applied Biosciences). mRNA and miR expression levels were quantified using Taqman primer/probe sets for the target and normalized to a housekeeping control (mRNA: GAPDH; miR: RNU48). […]
For orientation: In qPCR the cycle at which signal appears reflects the starting amount.

On to `Cn1cc(C2=C(c3cn(C4CCN(Cc5ccccn5)CC4)c4ccccc34)C(=O)NC2=O)c2ccccc21` [Enzastaurin, 3-(1-methyl-1H-indol-3-yl)-4-[1-[1-(pyridin-2-ylmethyl)piperidin-4-yl]-1H-indol-3-yl]-1H-pyrrole-2,5-dione], for which the “FHIT expression at low doses in vitro” value is recorded as “increased”.
